Results on eight molecules are retold here after patent US20230136702A1, “Inhibitors of Human Herpesviruses” (The Governors of the University of Alberta, priority 2020, published 2023).

Each structure is given as a SMILES string. pEC50, pIC50: −log10 of the molar value. Structures can show the parent of a compound that is named as a salt. Where two headings read alike, the source gives them in different places. Where only a bound is given, the exact number is not on record here.

The target of series [1] is T1, HCMV DNA polymerase (UL54) (Human cytomegalovirus, UniProt P08546).
T1 construct: 6His (C); made in house; host or cells: Sf9 insect cells (baculovirus, pFastBac)
Kind of series: HCMV DNA polymerase enzyme inhibition assay (ProFoldin, fluorescence). The format is biochemical. The following applies: 37° C., duplicate, max 40 μM. Here is the method: The HCMV DNA polymerase assay was developed by ProFoldin. The assay detects the formation of DNA from the DNA polymerase reaction in the presence of a DNA template, dATP and dGTP. The formation of the DNA is detected by using a fluorescence method. The fluorescence intensity increases when DNA is generated by the enzyme reaction.
A time-course experiment was performed aside the enzyme inhibition assay to ensure the assay was sensitive to the enzyme inhibition. The wells for the time-course experiment contained 1 μL of DMSO and the same reaction mixture as that in the enzyme inhibition assay. The time-course data varied between plates. The reactions were stopped when the fluorescence reached a value of about 3700 for each plate.
Exemplary solid compounds (e.g., as described herein) were dissolved in DMSO to make […] stock solutions. PFA (phosphonoformic acid or phosphonomethanoic acid) was used as a positive control. The compound mother plates were prepared at 50× concentrated compound concentrations with a 2-fold serial dilution. All the exemplary compounds except PFA were diluted in DMSO. PFA was diluted in water. The maximum compound concentration was 2 mM that gave the final concentration of 40 μM in the assay. One microliter of the 50× stock solutions was transferred into the assay plates. Three copies of assay plates were prepared, two for HCMV DNA polymerase assay and one for compound background control.
The following is the protocol for enzyme inhibition performed at 37° C.:
1. Prepared a premix composed of 35347 μL of H2O, 5220 μL of 10× assay buffer and 149 μL of 350×HCMV DNA polymerase.
2. Added 39 μL of the premix into the wells with 1 μL of the compound. Incubated the mixture for at least 5 min.
3. Added 10 μL of 5×dNTP (0.1 mM), 5×DNA template solutions into each well and incubated the solution until the fluorescence value reached a value about 3700 for the DMSO-only control wells.
4. Added 50 μL of the 1× dye into the wells.
5. Read the fluorescence at emission wavelength of 535 nm and excitation wavelength of 485 nm.
For the compound background reading, added 99 μL of water in the wells with 1 μL of compounds and read the fluorescence. […] The 0% inhibition value F0 was from the wells with DMSO (no inhibitor).
The background values were subtracted from the fluorescence reading to get the net fluorescence values. The net fluorescence values were used for calculation of the percentage inhibition.
The assay was performed in duplicate for the test article at […], 1.25, 0.625, 0.313, 0.156 and 0.078 μM. The IC50 curves were obtained by fitting the percentage inhibition values with the compound concentrations using Prism GraphPad software.

Series [2] can be described thus: Cytotoxicity in MRC5 cells without virus infection (CCK8). The format is cell-based. To be noted: human. As for the experimental part:
(§1) Exemplary compounds (e.g., as described herein) were prepared as 20 mM stock solutions with DMSO. Reference compound was ganciclovir (Sigma). Compounds were tested at 8 concentrations, 3-fold serial dilutions, in duplicate for EC50 and CC50 determinations. The highest testing concentrations of the exemplary compounds and reference compound were 40 μM and 100 μM, respectively. The final concentration of DMSO in the cell culture was 0.5%.
(§2) MRC5 cells (ATCC CCL-171) was obtained from the ATCC and maintained in the EMEM (Sigma) supplemented with 10% FBS (HyClone), 1% L-glutamine (Gibco), 1% NEAA (Gibco), and 1% PS (Hyclone). Reagent:
Cytotoxicity of the compounds was assessed under the same conditions, but without virus infection, in parallel. Cell viability was measured with CCK8 following the manufacturer's manual. CC50 values were then calculated based on cytotoxicity at the test concentrations normalized by the medium control (medium only).
(§3) Antiviral activity and cytotoxicity of the compounds were expressed as % Inhibition and % Viability, respectively, and calculated with the formulas below:
Viability (%)=(Raw dataCPD−AverageMC)/(AverageCC−AverageMC)*100
(§4) Raw dataCPD indicates the values of the compound-treated wells; AverageVC, AverageCC and AverageMC indicate the average values of the virus control (cells infected with virus, without compound treatment), cell control and medium control wells, respectively.
(§5) EC50 and CC50 values were calculated using the GraphPad Prism software.

For series [3], the system named is HCMV US3-6-EGFP-HCMV-AD169 strain. The experiment in a line: In vitro inhibitory (antiviral) activity against HCMV, GFP reporter in MRC5 cells. The following applies: Human betaherpesvirus 5, AD169, MRC5, 96 h, read-out: HCMV Antiviral EC50 range. The format is cell-based, Human cytomegalovirus (HCMV). Here is the method: as §1
HCMV US3-6-EGFP-HCMV-AD169 strain was obtained from Institute Pasteur of Shanghai, CAS. The virus contains GFP as a reporter of the viral replication.
as §2
In 96-well plates, MRC5 cells were seeded at 20,000 cells per well and cultured at 37° C. and 5% C02 overnight. Next day, compounds (8 concentrations, 3-fold dilutions, in duplicate) and US3-6-EGFP-HCMV-AD169 (MOI=0.1) were added to the cells. The resulting cultures were incubated at 37° C. and 5% C02 for 4 days. Fluorescence intensity was determined by Acumen Cellista (TTP LabTech). The antiviral activity of each compound was calculated based on the inhibition of expression of GFP at each concentration normalized by the cell control (cells without virus infection or compound treatment).
as §3
Inhibition (%)=100−(Raw dataCPD−AverageCC)/(AverageVC−AverageCC)*100
as §4, §5

For a further series, the target named is T2, hERG potassium channel (Homo sapiens, UniProt Q12809).
T2 construct: host or cells: CHO cells stably expressing hERG
Kind of series: Inhibition of hERG potassium channel, automated patch clamp (SyncroPatch 384PE) in CHO cells. The format is cell-based. As for the experimental part:
This automated patch clamp method (SyncroPatch 384PE) CHO cells stably expressing hERG potassium channels from Sophion Biosciences were used for this test.
The cells were cultured in a humidified and air-controlled (5% C02) incubator at 37° C.
The CHO cells which were at least two days after plating and more than 75% confluent would be used for experiments. Before testing, cells were harvested using TrypLE and resuspended in the physiological solution at the room temperature.
For the electrophysiological recordings the following solutions were used (Table 5). The physiological solution and external solution were prepared at least one month. The intracellular solution was prepared in batches aliquoted, and stored at 4° C. until used.
Exemplary compounds (e.g., as described herein) were dissolved in 100% DMSO to obtain stock solutions for different test concentrations. Then the stock solutions were further diluted into external solution to achieve final concentrations for testing. Visual check for precipitation was conducted before testing. Final DMSO concentration in external solution was not more than 0.30% for the compounds.
From this holding potential of −80 mV, the voltage was first stepped to −50 mV for 80 ms for leak subtraction, and then stepped to +20 mV for 4800 ms to open hERG channels. After that, the voltage was stepped back down to −50 mV for 5000 ms, causing a “rebound” or tail current, which was measured and collected for data analysis. Finally, the voltage was stepped back to the holding potential (−80 mV, 1000 ms). This voltage command protocol was repeated every 20000 msec. This command protocol was performed continuously during the test (vehicle control and test compound).
hERG SyncroPatch assay was conducted at room temperature. The Setup, Prime Chip, Catch and Seal Cells, Amplifier Settings, Voltage and Application Protocols were established with Biomek Software (Nanion).
One addition of 40 μL of the vehicle was applied, followed by 300s for a baseline period. Then the doses of exemplary test compounds were added with 40 μL. The exposure of test compound at each concentration was no less than 300s. […] Five concentrations (0.494 μM, 1.48 μM, 4.44 μM, 13.33 μM and 40.00 μM) were tested for each compound. Minimum 2 replicates per concentration were obtained.
Within each well recording, percent of control values were calculated for each test compound concentration current response based on peak current in presence of reference control (current response/peak current)×100%. The Dose-Response curves were fit to the standard Hill equation as shown below:
Ipost cpd/Ipre cpd=Bottom+(Top−Bottom)/(1+10^((Log IC50−X)*HillSlope))
Where X is the logarithm of concentration, Ipost cpd/Ipre cpd is the normalized peak current amplitude, Top is 1 and Bottom is equal to 0.
Curve-fitting and IC50 calculations were performed by GraphPad Prism 5.0. If the inhibition obtained at the lowest concentration tested was over 50%, or at the highest concentration tested was less than 50%, we reported the IC50 as less than lowest concentration, or higher than highest concentration, respectively.

Where [4] appears, read: CHO cells stably expressing hERG, room temperature, 0.494-40.00 μM, read-out: CHO-hERG Activity Range.

T2 sequence (Q12809 whole entry): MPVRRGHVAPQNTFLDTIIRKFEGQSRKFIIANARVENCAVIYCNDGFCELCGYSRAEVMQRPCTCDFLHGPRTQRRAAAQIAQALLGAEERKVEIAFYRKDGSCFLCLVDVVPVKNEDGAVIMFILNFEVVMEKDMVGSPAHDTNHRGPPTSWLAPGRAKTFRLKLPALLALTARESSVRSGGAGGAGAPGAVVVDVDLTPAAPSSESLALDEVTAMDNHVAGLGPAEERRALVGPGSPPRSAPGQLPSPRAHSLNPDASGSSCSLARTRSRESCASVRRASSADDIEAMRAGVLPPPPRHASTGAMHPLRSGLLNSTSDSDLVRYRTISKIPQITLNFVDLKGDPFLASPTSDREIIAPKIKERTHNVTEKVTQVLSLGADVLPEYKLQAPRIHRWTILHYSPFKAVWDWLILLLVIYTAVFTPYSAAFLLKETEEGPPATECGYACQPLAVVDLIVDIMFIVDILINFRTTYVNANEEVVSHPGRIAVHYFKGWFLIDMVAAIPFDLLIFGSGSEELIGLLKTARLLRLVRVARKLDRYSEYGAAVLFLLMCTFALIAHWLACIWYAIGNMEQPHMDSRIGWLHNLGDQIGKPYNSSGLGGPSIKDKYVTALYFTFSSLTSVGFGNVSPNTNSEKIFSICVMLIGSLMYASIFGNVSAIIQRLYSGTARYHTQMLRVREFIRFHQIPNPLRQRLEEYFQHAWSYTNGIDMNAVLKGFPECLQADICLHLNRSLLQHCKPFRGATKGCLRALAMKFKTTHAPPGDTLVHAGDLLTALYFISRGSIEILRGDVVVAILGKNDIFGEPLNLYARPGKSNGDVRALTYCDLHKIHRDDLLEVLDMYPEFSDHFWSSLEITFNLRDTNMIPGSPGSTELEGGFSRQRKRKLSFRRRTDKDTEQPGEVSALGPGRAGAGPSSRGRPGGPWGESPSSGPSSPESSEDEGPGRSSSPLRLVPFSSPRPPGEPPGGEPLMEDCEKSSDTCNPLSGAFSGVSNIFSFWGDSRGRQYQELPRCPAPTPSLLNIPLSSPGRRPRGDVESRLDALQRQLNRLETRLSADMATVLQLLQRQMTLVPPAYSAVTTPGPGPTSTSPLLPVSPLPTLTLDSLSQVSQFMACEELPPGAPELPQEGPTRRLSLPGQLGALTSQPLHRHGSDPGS
T1 sequence (P08546 whole entry): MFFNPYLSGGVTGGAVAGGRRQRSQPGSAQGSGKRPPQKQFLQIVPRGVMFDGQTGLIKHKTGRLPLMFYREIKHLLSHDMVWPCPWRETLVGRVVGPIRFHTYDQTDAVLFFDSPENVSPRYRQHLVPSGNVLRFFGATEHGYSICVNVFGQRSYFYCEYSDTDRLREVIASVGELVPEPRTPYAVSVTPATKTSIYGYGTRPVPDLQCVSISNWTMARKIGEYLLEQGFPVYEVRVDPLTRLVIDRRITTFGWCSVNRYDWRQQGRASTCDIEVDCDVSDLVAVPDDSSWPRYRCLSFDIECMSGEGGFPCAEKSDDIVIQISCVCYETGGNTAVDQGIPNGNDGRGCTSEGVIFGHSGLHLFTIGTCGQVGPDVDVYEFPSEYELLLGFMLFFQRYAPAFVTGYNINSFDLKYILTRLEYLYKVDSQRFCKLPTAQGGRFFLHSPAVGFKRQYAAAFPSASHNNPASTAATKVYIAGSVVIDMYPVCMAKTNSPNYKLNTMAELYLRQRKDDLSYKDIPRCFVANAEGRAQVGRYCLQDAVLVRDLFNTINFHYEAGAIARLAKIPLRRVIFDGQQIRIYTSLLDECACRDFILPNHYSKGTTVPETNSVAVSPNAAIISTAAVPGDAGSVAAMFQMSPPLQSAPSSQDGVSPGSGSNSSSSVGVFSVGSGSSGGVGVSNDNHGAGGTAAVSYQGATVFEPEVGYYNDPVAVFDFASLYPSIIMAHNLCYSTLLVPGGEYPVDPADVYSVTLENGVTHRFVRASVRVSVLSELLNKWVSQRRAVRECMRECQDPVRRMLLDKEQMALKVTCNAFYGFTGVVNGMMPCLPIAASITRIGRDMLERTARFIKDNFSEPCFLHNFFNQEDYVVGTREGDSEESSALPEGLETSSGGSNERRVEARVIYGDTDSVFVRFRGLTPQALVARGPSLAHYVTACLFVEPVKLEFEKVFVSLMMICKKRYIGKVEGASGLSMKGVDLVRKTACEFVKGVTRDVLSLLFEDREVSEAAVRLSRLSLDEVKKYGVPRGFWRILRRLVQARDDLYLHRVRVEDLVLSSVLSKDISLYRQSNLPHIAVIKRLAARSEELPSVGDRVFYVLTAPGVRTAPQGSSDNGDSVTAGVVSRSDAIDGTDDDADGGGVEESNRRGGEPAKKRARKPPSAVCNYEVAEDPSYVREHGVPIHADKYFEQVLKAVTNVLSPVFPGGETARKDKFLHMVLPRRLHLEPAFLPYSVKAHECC

For `CC1(F)CN(C(=O)Cn2c(=O)c(C(=O)NCc3ccc(Cl)cc3)cc3nc(N4CCCC4=O)cnc32)C1` [Compound 1, N-[(4-chlorophenyl)methyl]-5-[2-(3-fluoro-3-methylazetidin-1-yl)-2-oxoethyl]-6-oxo-2-(2-oxopyrrolidin-1-yl)-5,6-dihydropyrido[2,3-b]pyrazine-7-carboxamide], the pIC50 in series [1] was above 6.00; at hERG potassium channel (setting [4]), below 5.00. This molecule also registered a CC50 at 4 days in series [2] below 20 µM. Further, the pEC50 in series [3] was above 6.00.
With `CC1(F)CN(C(=O)Cn2c(=O)c(C(=O)NCc3ccc(Cl)cc3)cc3nc(N4CCN(CCNS(C)(=O)=O)C4=O)cnc32)C1` [Compound 16, N-[(4-chlorophenyl)methyl]-5-[2-(3-fluoro-3-methylazetidin-1-yl)-2-oxoethyl]-2-(3-{2-[(methanesulfonyl)amino]ethyl}-2-oxoimidazolidin-1-yl)-6-oxo-5,6-dihydropyrido[2,3-b]pyrazine-7-carboxamide], the pIC50 in series [1] is above 6.00; at hERG potassium channel (setting [4]), below 5.00. Also, in series [2], the cytotoxic concentration (CC50) at 4 days was above 40 µM. Moreover, the pEC50 in series [3] is below 6.00.
Taken in the same sequence, the figures for `CC(C(=O)O)N1CCN(c2cnc3c(cc(C(=O)NCc4ccc(Cl)cc4)c(=O)n3CC(=O)N3CC(C)(C)C3)n2)C1=O` (centres unmarked) [Compound 46, 2-[3-(7-{[(4-chlorophenyl)methyl]carbamoyl}-5-[2-(3,3-dimethylazetidin-1-yl)-2-oxoethyl]-6-oxo-5,6-dihydropyrido[2,3-b]pyrazin-2-yl)-2-oxoimidazolidin-1-yl]propanoic acid] were above 6.00, below 5.00, above 40 µM and above 6.00.
Consider `CC1(F)CN(C(=O)Cn2c(=O)c(C(=O)NCc3ccc(Cl)cc3)cc3nc(N4CCN(CC(=O)NC#N)C4=O)cnc32)C1` [Compound 26, N-[(4-chlorophenyl)methyl]-2-{3-[2-(cyanoamino)-2-oxoethyl]-2-oxoimidazolidin-1-yl}-5-[2-(3-fluoro-3-methylazetidin-1-yl)-2-oxoethyl]-6-oxo-5,6-dihydropyrido[2,3-b]pyrazine-7-carboxamide], for which the pIC50 is above 6.00 in series [1] and below 5.00 on hERG potassium channel (setting [4]). This molecule also came in with a CC50 at 4 days in series [2] above 40 µM. Also, in series [3], the pEC50 was below 6.00.
In the case of `CC(C)[C@H](N)C(=O)NCCN1CCN(c2cnc3c(cc(C(=O)NCc4ccc(Cl)cc4)c(=O)n3CC(=O)N3CC(C)(F)C3)n2)C1=O` [Compound 37, N-[(4-chlorophenyl)methyl]-5-[2-(3-fluoro-3-methylazetidin-1-yl)-2-oxoethyl]-6-oxo-2-{2-oxo-3-[2-(L-valylamino)ethyl]imidazolidin-1-yl}-5,6-dihydropyrido[2,3-b]pyrazine-7-carboxamide-hydrochloride salt], the pIC50 is below 6.00 in series [1] and below 5.00 on hERG potassium channel (setting [4]). Moreover, the CC50 at 4 days in series [2] (MRC5 cells, 4 days, CCK8, highest concentration 40 μM, read-out: MCR5 CC50) was above 40 µM. Moreover, the pEC50 in series [3] is above 6.00.
`CC1(C)CN(C(=O)Cn2c(=O)c(C(=O)NCc3ccc(Cl)cc3)cc3nc(N4CCN(C(C)(C)C(=O)O)C4=O)cnc32)C1` [Compound 43, 2-[3-(7-{[(4-chlorophenyl)methyl]carbamoyl}-5-[2-(3,3-dimethylazetidin-1-yl)-2-oxoethyl]-6-oxo-5,6-dihydropyrido[2,3-b]pyrazin-2-yl)-2-oxoimidazolidin-1-yl]-2-methylpropanoic acid]: the results for the pIC50 (in series [1]; on hERG potassium channel (setting [4])) were above 6.00 and below 5.00, respectively. Moreover, the CC50 at 4 days in series [2] is above 40 µM. Moreover, in series [3], the pEC50 was above 6.00.
On to `CN(C)C(=O)CN1CCN(c2cnc3c(cc(C(=O)NCc4ccc(Cl)cc4)c(=O)n3CC(=O)N3CC(C)(F)C3)n2)C1=O` [Compound 21], for which the pIC50 was above 6.00 in series [1] and below 5.00 on hERG potassium channel (setting [4]). This molecule yielded a half-maximal cytotoxic concentration (CC50) at 4 days in series [2] above 40 µM. Besides, in series [3], the pEC50 was above 6.00.
In the case of `CC(C)(C(=O)O)N1CCN(c2cnc3c(cc(C(=O)NCc4ccc(Cl)cc4)c(=O)n3CC(=O)N3CC4(CC4)C3)n2)C1=O` [Compound 44, 2-[3-(5-[2-(5-azaspiro[2.3]hexan-5-yl)-2-oxoethyl]-7-{[(4-chlorophenyl)methyl]carbamoyl}-6-oxo-5,6-dihydropyrido[2,3-b]pyrazin-2-yl)-2-oxoimidazolidin-1-yl]-2-methylpropanoic acid], the values for the pIC50 (in series [1]; against hERG potassium channel) were above 6.00 and below 5.00, respectively. The CC50 at 4 days in series [2] is above 40 µM. For the same molecule, the pEC50 in series [3] was above 6.00.
